The subject of assay [1] is WT mice. The experiment in a line: DARPP32 protein level in striatum by Western blotting, WT mice. The conditions noted are these: 5 mg/kg/d until 25 weeks, WT Vehicle = 100, n = 3. Format: in vivo, mouse. As to the method:
7-week-old N171-82Q HD male mice were paired with female B6C3F1/J hybrid mice to obtain newborn mice. From 21 days of age, male mice were housed in separate cages. 0.5 cm of mouse tail tissue was removed to extract DNA to determine the genotype of the mouse, such that N171-82Q HD mice and WT mice needed for the experiment were obtained. The mice were randomly divided into WT Vehicle group (normal mice), WT test compound group (administration group of normal mice, 5 mg/kg/d, n=10), HD Vehicle group (blank group of HD mice, n=15), HD test compound group (administration groups 1-5 of HD mice, 5 mg/kg/d, n=10). The test compound was suspended in 1% CMC-Na solution and administered by intragastric administration until the end of the study. The weights of the mice were measured every week. Behavioral tests were performed at 12 weeks, 18 weeks, and 24 weeks of age to investigate motor function. At 20 weeks, 3 samples of tissue from each group were used for western blotting and immunohistochemistry. At 24 weeks, MRI scans were performed. At the end of the study, the effect of the test compound on the mortality of mice was evaluated. […] The total protein in the striatum tissue was extracted, and the protein level of DARPP 32 was detected by Western blotting experiment. […] The protein was extracted, and the protein level of DARPP 32 was detected by Western blotting.
A general note: In western blotting, separated proteins are transferred to a membrane and probed.

The subject of assay [2] is WT mice. The experiment in a line: High-altitude balance beam (11 mm) experiment 1, WT mice. Format: in vivo, mouse. The following applies: 5 mg/kg/d intragastric. As to the method:
7-week-old N171-82Q HD male mice were paired with female B6C3F1/J hybrid mice to obtain newborn mice. From 21 days of age, male mice were housed in separate cages. 0.5 cm of mouse tail tissue was removed to extract DNA to determine the genotype of the mouse, such that N171-82Q HD mice and WT mice needed for the experiment were obtained. The mice were randomly divided into WT Vehicle group (normal mice), WT test compound group (administration group of normal mice, 5 mg/kg/d, n=10), HD Vehicle group (blank group of HD mice, n=15), HD test compound group (administration groups 1-5 of HD mice, 5 mg/kg/d, n=10). The test compound was suspended in 1% CMC-Na solution and administered by intragastric administration until the end of the study. The weights of the mice were measured every week. Behavioral tests were performed at 12 weeks, 18 weeks, and 24 weeks of age to investigate motor function. At 20 weeks, 3 samples of tissue from each group were used for western blotting and immunohistochemistry. At 24 weeks, MRI scans were performed. At the end of the study, the effect of the test compound on the mortality of mice was evaluated. The software Sigmaplot 13.0 was used for statistical analysis of the data, and the data of each group was expressed as mean standard error (x±SEM). Behavioral test results were analyzed using two-way (genotype and processing factor) ANOVA and post-ho tests, the comparison and statistics of weight data were performed using two-way (genotype and age) ANOVA of repeated measures, and mortality was counted using Kaplan-Meier method. Other measurement data were analyzed by one-way ANOVA. P<0.05 was considered statistically significant. The motor function of mice was evaluated by the rotarod experiment and three types of balance beam experiments. […] If the time for crossing the beams was greater than 60 seconds, it was recorded as 60 seconds. a round balance beam with a length of 80 cm and a diameter of 11 mm was place at a height of about 50 cm from the ground. […]

On to `O=c1cc(-c2ccc(N3CCCCC3)cc2)oc2c(O)c(O)ccc12` [Example 1, 7,8-dihydroxy-2-(4-(piperidin-1-yl)phenyl)-4H-chromen-4-one], for which the “Relative intensity of DARPP32 protein” value in the assay on WT mice [1] stood at 96.066 ± 5.805. The “Time for crossing the beams, high-altitude balance beam (11 mm)” value in the assay with WT mice [2] (12 w) is listed as 8.18 ± 1.99 s; in the assay on WT mice [2] (18 w), 7.55 ± 2.42 s; in the assay on WT mice [2] (24 w) it was 8.18 ± 4.29 s.

For the origin of these results see patent publication US20200390755A1, “COMPOUND FOR TREATING NERVOUS SYSTEM DISEASES AND USE THEREOF” (SHAANXI MICOT TECHNOLOGY CO., LTD., priority 2018, published 2020).
